pIC50: −log10 of the molar value.
Assays:
[1] = biological target: T1, Sigma^70 saturated E. coli RNA Polymerase (Escherichia coli, UniProt P0A7Z4+P0A800+P0A8T7+P0A8V2); test: IC50 assay, inhibition of RNA polymerase; type: biochemical
T1 construct: purchased Epicenter
Protocol: One common assay involves evaluation of the compounds as RNA polymerase inhibitors. In this assay, buffer (250 mM KCl, 5% glycerol, 10 mM MgCl2, 0.1 mg/ml BSA) is combined with 6 mM β-M.E., PT5 DNA template, and 1.3 μg/rxn Sigma^70 saturated E. coli RNA Polymerase (Epicenter). The compound is then added in a manner not to exceed 5% DMSO. Nucleotide triphosphates are then added at the following concentration: 250 μM ATP, CTP and UTP with 100 μM cold CTP and 50 μM α-^32P CTP. The mixture is incubated for 10 min at about 37° C. A [2×] loading buffer is added and the mixture is then run on a 6% urea denaturing PAGE until bromophenol blue reaches the edge of plate. The gel is soaked (about 20 minutes in 10% MeOH and 10% acetic acid, to remove urea), then dried (about 55 minutes at about 85° C. (BioRad Gel Drier)) and exposed to a Phospho Imaging Plate for 1 hour. The plate is then read on a Fujix Bas1000 Imaging System and quantified using MacBas v2.0 software. An IC50 (in μM) can be calculated as the concentration of a drug which reduces the enzyme activity to 50% of the control.
In this assay, buffer (250 mM KCl, 5% Glycerol, 10 mM MgCl2, 0.1 mg/ml bovine serum albumin (BSA)) is combined with 6 mM β-mercaptoethanol, PT5 DNA template, and 1.3 μg/rxn Sigma^70 saturated E. coli RNA Polymerase (obtained from Epicenter). The compound is then added in a manner not to exceed 5% DMSO. Nucleotide triphosphates are then added at the following concentration: 250 μM ATP, CTP and UTP with 100 μM cold CTP and 50 μM α-32P CTP. The mixture is incubated for 10 min at about 37° C. A [2×] loading buffer is added and the mixture is then run on a 6% urea denaturing PAGE until bromophenol blue reaches the edge of plate. The gel is soaked (about 20 minutes in 10% MeOH and 10% acetic acid, to remove urea), then dried (about 55 minutes at about 85° C. (BioRad Gel Drier)) and exposed to a Phospho Imaging Plate for 1 hour. The plate is then read on a Fujix Bas1000 Imaging System and quantified using MacBas v2.0 software. An IC50 (in μM) can be calculated as the concentration of a compound of the invention that reduces the enzyme activity to 50% of the control. For the sake of clarity, the above-described assay is used to determine the IC50 values referenced in the claims. However, the skilled artisan will recognize that other methods can be used to determine an IC50 value.

B. su = test: Minimum Inhibitory Concentration assay, B. su; type: cell-based; conditions: LB medium, 16 hours, 37° C.
Protocol: (§1) For Minimum Inhibitory Concentration (MIC) determinations for selected bacteria, log phase growing bacteria are re-suspended at 1×10^5 bacteria per mL in LB medium. The compound is added and two-fold dilutions are made. The final volume in the 96-well plate is about 100 μL. The plate is incubated at 37° C. in the dark with shaking. After 16 hours of incubation, growth is monitored by reading A600 or by visual inspection. MIC is defined as the minimum concentration of drug resulting in inhibition of visible growth of bacterial under the conditions described (above) in National Committee for Clinical Laboratory Standards 1993. Methods for dilution antimicrobial susceptibility tests for bacteria that grow aerobically. Approved standard M7-A3; National Committee for Clinical Laboratory Standards: Villanova, Pa.
as §1, with “MIC” for “Minimum Inhibitory Concentration (MIC)”

S. au = test: Minimum Inhibitory Concentration assay, S. au; type: cell-based; conditions: LB medium, 16 hours, 37° C.
Protocol: as §1
as §1, with “MIC” for “Minimum Inhibitory Concentration (MIC)”

E.c(tolC) = test: Minimum Inhibitory Concentration assay, E.c(tolC); type: cell-based; conditions: 16 h, read-out: MIC (μM) E.c(tolC)
Protocol: as §1
as §1, with “MIC” for “Minimum Inhibitory Concentration (MIC)”

[2] = Table 1, compounds of Formula 1
[3] = Table 2, compounds of Formula 13

T1 sequence (P0A8V2 whole entry): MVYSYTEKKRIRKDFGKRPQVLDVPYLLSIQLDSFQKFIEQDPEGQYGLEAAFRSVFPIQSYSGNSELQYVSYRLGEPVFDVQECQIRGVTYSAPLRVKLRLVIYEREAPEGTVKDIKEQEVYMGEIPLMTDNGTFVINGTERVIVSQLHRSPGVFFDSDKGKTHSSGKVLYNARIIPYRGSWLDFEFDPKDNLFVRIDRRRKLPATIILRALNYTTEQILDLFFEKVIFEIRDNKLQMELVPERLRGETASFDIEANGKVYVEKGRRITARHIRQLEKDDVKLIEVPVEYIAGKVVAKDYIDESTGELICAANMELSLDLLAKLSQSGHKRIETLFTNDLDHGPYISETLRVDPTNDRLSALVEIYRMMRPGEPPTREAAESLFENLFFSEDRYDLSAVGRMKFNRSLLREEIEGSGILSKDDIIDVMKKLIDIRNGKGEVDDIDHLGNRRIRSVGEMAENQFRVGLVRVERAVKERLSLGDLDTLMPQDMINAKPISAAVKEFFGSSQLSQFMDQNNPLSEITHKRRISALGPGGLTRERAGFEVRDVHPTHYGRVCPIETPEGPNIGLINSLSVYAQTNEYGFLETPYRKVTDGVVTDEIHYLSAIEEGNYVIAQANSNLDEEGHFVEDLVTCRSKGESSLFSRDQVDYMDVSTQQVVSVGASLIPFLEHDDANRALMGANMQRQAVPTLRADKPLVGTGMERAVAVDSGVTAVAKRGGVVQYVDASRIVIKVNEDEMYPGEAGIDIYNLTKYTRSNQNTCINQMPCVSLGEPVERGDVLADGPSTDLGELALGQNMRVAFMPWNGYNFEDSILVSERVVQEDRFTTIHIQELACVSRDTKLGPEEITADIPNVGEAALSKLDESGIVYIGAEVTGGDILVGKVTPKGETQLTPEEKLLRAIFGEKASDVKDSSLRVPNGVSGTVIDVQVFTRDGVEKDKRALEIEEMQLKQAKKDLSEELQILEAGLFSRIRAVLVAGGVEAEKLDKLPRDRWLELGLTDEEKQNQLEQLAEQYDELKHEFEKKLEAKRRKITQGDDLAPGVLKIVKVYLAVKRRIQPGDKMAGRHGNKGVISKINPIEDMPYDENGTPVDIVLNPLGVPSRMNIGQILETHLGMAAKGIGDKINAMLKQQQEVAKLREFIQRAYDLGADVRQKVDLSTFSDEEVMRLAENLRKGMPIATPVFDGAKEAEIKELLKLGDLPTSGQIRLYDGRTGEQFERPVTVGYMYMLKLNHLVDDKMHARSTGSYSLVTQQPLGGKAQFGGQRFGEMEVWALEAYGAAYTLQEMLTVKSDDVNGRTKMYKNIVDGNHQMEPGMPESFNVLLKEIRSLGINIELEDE
T1 sequence (P0A8T7 whole entry): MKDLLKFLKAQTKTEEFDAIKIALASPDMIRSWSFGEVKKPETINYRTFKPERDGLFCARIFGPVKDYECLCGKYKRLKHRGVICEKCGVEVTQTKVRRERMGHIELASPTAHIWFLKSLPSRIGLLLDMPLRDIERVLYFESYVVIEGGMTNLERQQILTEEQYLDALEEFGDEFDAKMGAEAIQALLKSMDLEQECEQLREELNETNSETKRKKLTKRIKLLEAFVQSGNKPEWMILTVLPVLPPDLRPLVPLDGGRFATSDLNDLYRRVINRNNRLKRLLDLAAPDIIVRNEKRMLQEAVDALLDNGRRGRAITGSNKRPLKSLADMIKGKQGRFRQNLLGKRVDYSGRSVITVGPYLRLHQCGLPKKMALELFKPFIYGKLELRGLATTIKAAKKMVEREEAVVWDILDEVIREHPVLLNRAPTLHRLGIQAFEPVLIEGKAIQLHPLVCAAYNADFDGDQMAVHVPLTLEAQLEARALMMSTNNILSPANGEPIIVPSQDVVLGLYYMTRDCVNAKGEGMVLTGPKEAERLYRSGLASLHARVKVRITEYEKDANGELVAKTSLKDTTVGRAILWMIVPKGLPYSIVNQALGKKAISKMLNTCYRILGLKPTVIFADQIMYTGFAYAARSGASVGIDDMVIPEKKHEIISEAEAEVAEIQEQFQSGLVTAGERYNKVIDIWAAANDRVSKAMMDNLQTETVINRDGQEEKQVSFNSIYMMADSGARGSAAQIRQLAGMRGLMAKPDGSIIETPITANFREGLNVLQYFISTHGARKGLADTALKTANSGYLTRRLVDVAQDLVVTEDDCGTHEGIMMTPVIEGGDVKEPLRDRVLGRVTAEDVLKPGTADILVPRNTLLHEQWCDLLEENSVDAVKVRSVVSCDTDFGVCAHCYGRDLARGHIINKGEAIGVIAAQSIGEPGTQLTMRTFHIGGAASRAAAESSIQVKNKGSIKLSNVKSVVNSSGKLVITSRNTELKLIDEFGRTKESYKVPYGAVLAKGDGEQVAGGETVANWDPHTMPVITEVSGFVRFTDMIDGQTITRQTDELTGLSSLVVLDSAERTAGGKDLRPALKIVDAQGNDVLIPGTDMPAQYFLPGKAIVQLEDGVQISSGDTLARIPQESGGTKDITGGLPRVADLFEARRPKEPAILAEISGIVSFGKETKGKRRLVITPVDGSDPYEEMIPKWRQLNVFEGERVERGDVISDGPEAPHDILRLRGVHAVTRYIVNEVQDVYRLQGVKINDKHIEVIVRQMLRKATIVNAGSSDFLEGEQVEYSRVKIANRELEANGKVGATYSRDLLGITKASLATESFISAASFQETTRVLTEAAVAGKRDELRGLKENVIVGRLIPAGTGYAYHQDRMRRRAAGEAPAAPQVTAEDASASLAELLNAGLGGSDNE
T1 sequence (P0A7Z4 whole entry): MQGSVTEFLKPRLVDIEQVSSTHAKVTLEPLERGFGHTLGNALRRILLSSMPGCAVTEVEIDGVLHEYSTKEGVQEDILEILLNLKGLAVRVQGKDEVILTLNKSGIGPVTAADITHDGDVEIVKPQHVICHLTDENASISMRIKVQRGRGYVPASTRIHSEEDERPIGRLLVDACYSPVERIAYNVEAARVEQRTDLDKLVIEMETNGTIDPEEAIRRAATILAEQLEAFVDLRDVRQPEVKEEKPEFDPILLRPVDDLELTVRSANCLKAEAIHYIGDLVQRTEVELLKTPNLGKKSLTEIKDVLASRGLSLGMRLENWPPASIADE
T1 sequence (P0A800 whole entry): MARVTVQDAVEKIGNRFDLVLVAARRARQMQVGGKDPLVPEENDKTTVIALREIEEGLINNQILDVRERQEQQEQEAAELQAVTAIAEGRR

COc1cccc(-c2[nH]ncc2-c2ccccc2)c1 [Example 2]
pIC50 [1, 2]: < 3.30
MIC (B. su; Table 1): < 500 µM
MIC (S. au; Table 1): < 500 µM
MIC (E.c(tolC)): < 500 µM

Clc1ccc(-c2[nH]ncc2-c2ccccc2)cc1 [Example 3]
pIC50 [1, 2]: < 3.30
MIC (B. su; Table 1): > 500 µM
MIC (S. au; Table 1): > 500 µM
MIC (E.c(tolC)): > 500 µM

Clc1ccc(-c2[nH]ncc2-c2ccccc2)cc1Cl [Example 4]
pIC50 [1, 2]: < 3.30
MIC (B. su; Table 1): < 500 µM
MIC (S. au; Table 1): < 500 µM
MIC (E.c(tolC)): < 500 µM

Cc1ccc(-c2[nH]ncc2-c2ccccc2)cc1 [Example 5]
pIC50 [1, 2]: < 3.30
MIC (B. su; Table 1): < 500 µM
MIC (S. au; Table 1): < 500 µM
MIC (E.c(tolC)): < 500 µM

COc1ccc(-c2[nH]ncc2-c2ccccc2)cc1 [Example 6]
pIC50 [1, 2]: < 3.30
MIC (B. su; Table 1): < 500 µM
MIC (S. au; Table 1): < 500 µM
MIC (E.c(tolC)): < 500 µM

Clc1cccc(-c2cn[nH]c2-c2ccc(Cl)c(Cl)c2)c1 [Example 7]
pIC50 [1, 2]: < 3.30
MIC (B. su; Table 1): < 500 µM
MIC (S. au; Table 1): < 500 µM
MIC (E.c(tolC)): < 500 µM

Clc1cccc(-c2[nH]ncc2-c2ccc(Cl)c(Cl)c2)c1 [Example 8]
pIC50 [1, 2]: > 3.30
MIC (B. su; Table 1): < 500 µM
MIC (S. au; Table 1): < 500 µM
MIC (E.c(tolC)): < 500 µM

FC(F)(F)c1cc(-c2cn[nH]c2-c2cccc(Cl)c2)ccc1Cl [Example 9]
pIC50 [1, 2]: > 3.30
MIC (B. su; Table 1): < 500 µM
MIC (S. au; Table 1): < 500 µM
MIC (E.c(tolC)): < 500 µM

FC(F)(F)c1cc(-c2cn[nH]c2-c2ccccc2)ccc1Cl [Example 10]
pIC50 [1, 2]: > 3.30
MIC (B. su; Table 1): < 500 µM
MIC (S. au; Table 1): < 500 µM
MIC (E.c(tolC)): < 500 µM

Fc1ccc(-c2cn[nH]c2-c2cccc(Cl)c2)cc1C(F)(F)F [Example 11]
pIC50 [1, 2]: < 3.30
MIC (B. su; Table 1): < 500 µM
MIC (S. au; Table 1): < 500 µM
MIC (E.c(tolC)): < 500 µM

FC(F)(F)c1cc(-c2cn[nH]c2-c2cccc(Cl)c2)ccc1N1CCCC1 [Example 12]
pIC50 [1, 2]: < 3.30
MIC (B. su; Table 1): < 500 µM
MIC (S. au; Table 1): < 500 µM
MIC (E.c(tolC)): < 500 µM

O=c1[nH][nH]c(-c2cccc(C(F)(F)F)c2)c1-c1ccccc1 [Example 14, 4-phenyl-5-(3-trifluoromethylphenyl)-1,2-dihydropyrazol-3-one]
pIC50 [1, 3]: > 3.30
MIC (B. su; Table 2): < 500 µM
MIC (S. au; Table 2): < 500 µM
MIC (E.c(tolC)): < 500 µM

O=c1[nH][nH]c(-c2ccc(Cl)cc2)c1-c1ccccc1 [Example 15, 5-(4-chlorophenyl)-4-phenyl-1,2-dihydropyrazol-3-one]
pIC50 [1, 3]: < 3.30
MIC (B. su; Table 2): < 500 µM
MIC (S. au; Table 2): < 500 µM
MIC (E.c(tolC)): < 500 µM

O=c1[nH][nH]c(-c2ccccc2)c1-c1cccc(C(F)(F)F)c1 [Example 16, 5-phenyl-4-(3-trifluoromethylphenyl)-1,2-dihydropyrazol-3-one]
pIC50 [1, 3]: < 3.30
MIC (B. su; Table 2): < 500 µM
MIC (S. au; Table 2): < 500 µM
MIC (E.c(tolC)): < 500 µM

O=c1[nH][nH]c(-c2ccc(Cl)cc2)c1-c1cccc(C(F)(F)F)c1 [Example 17, 5-(4-chlorophenyl)-4-(3-trifluoromethylphenyl)-1,2-dihydropyrazol-3-one]
pIC50 [1, 3]: > 3.30
MIC (B. su; Table 2): < 500 µM
MIC (S. au; Table 2): < 500 µM
MIC (E.c(tolC)): < 500 µM

Fc1ccc(-c2n[nH]cc2-c2ccc(F)c(C(F)(F)F)c2)cc1 [Example 18]
pIC50 [1, 2]: > 3.30
MIC (B. su; Table 1): < 500 µM
MIC (S. au; Table 1): < 500 µM
MIC (E.c(tolC)): < 500 µM

CCNC1CCN(c2ccc(-c3c[nH]nc3-c3ccc(F)cc3)cc2C(F)(F)F)C1 (stereo not shown) [Example 19]
pIC50 [1, 2]: > 3.30
MIC (B. su; Table 1): < 500 µM
MIC (S. au; Table 1): < 500 µM
MIC (E.c(tolC)): < 500 µM

Fc1ccc(-c2n[nH]cc2-c2ccc(NCCN3CCNCC3)c(C(F)(F)F)c2)cc1 [Example 20]
pIC50 [1, 2]: > 3.30
MIC (B. su; Table 1): < 500 µM
MIC (S. au; Table 1): < 500 µM
MIC (E.c(tolC)): < 500 µM

Fc1ccc(-c2n[nH]cc2-c2ccc(NCCNCc3ccccc3)c(C(F)(F)F)c2)cc1 [Example 21]
pIC50 [1, 2]: > 3.30
MIC (B. su; Table 1): < 500 µM
MIC (S. au; Table 1): < 500 µM
MIC (E.c(tolC)): < 500 µM

NS(=O)(=O)c1ccc(CCNc2ccc(-c3c[nH]nc3-c3ccc(F)cc3)cc2C(F)(F)F)cc1 [Example 22]
pIC50 [1, 2]: > 3.30
MIC (B. su; Table 1): < 500 µM
MIC (S. au; Table 1): < 500 µM
MIC (E.c(tolC)): < 500 µM

CS(=O)(=O)Nc1ccc(CCNc2ccc(-c3c[nH]nc3-c3ccc(F)cc3)cc2C(F)(F)F)cc1 [Example 23]
pIC50 [1, 2]: < 3.30
MIC (B. su; Table 1): > 500 µM
MIC (S. au; Table 1): > 500 µM
MIC (E.c(tolC)): > 500 µM

NC1CCN(c2ccc(-c3c[nH]nc3-c3ccc(F)cc3)cc2C(F)(F)F)C1 (stereo not shown) [Example 24]
pIC50 [1, 2]: > 3.30
MIC (B. su; Table 1): < 500 µM
MIC (S. au; Table 1): < 500 µM
MIC (E.c(tolC)): < 500 µM

O=C(Nc1ccc(Cl)c(C(F)(F)F)c1)NC1CCN(c2ccc(-c3c[nH]nc3-c3ccc(F)cc3)cc2C(F)(F)F)C1 (stereo not shown) [Example 25]
pIC50 [1, 2]: > 3.30
MIC (B. su; Table 1): < 500 µM
MIC (S. au; Table 1): < 500 µM
MIC (E.c(tolC)): > 500 µM

Fc1ccc(-c2n[nH]cc2-c2cc(F)cc(C(F)(F)F)c2)cc1 [Example 26]
pIC50 [1, 2]: > 3.30
MIC (B. su; Table 1): < 500 µM
MIC (S. au; Table 1): < 500 µM
MIC (E.c(tolC)): < 500 µM

NCCNc1cc(-c2c[nH]nc2-c2ccc(F)cc2)cc(C(F)(F)F)c1 [Example 27]
pIC50 [1, 2]: > 3.30
MIC (B. su; Table 1): < 500 µM
MIC (S. au; Table 1): < 500 µM
MIC (E.c(tolC)): < 500 µM

O=C(NCCNc1cc(-c2c[nH]nc2-c2ccc(F)cc2)cc(C(F)(F)F)c1)c1ccccc1 [Example 28]
pIC50 [1, 2]: < 3.30
MIC (B. su; Table 1): < 500 µM
MIC (S. au; Table 1): < 500 µM
MIC (E.c(tolC)): < 500 µM

O=C(NCCNc1cc(-c2c[nH]nc2-c2ccc(F)cc2)cc(C(F)(F)F)c1)Nc1ccc(Cl)c(C(F)(F)F)c1 [Example 29]
pIC50 [1, 2]: > 3.30
MIC (B. su; Table 1): < 500 µM
MIC (S. au; Table 1): < 500 µM
MIC (E.c(tolC)): > 500 µM

NCCCNc1cc(-c2c[nH]nc2-c2ccc(F)cc2)cc(C(F)(F)F)c1 [Example 30]
pIC50 [1, 2]: < 3.30
MIC (B. su; Table 1): < 500 µM
MIC (S. au; Table 1): < 500 µM
MIC (E.c(tolC)): < 500 µM

O=C(NCCCNc1cc(-c2c[nH]nc2-c2ccc(F)cc2)cc(C(F)(F)F)c1)Nc1ccc(Cl)c(C(F)(F)F)c1 [Example 31]
pIC50 [1, 2]: > 3.30
MIC (B. su; Table 1): < 500 µM
MIC (S. au; Table 1): < 500 µM
MIC (E.c(tolC)): > 500 µM

O=[N+]([O-])c1cccc(-c2c[nH]nc2-c2ccc(F)c(C(F)(F)F)c2)c1 [Example 32]
pIC50 [1, 2]: > 3.30
MIC (B. su; Table 1): < 500 µM
MIC (S. au; Table 1): < 500 µM
MIC (E.c(tolC)): > 500 µM

O=[N+]([O-])c1cccc(-c2c[nH]nc2-c2ccc(N3CCCCC3)c(C(F)(F)F)c2)c1 [Example 33]
pIC50 [1, 2]: > 3.30
MIC (B. su; Table 1): < 500 µM
MIC (S. au; Table 1): < 500 µM
MIC (E.c(tolC)): > 500 µM

Nc1cccc(-c2c[nH]nc2-c2ccc(F)c(C(F)(F)F)c2)c1 [Example 34]
pIC50 [1, 2]: > 3.30
MIC (B. su; Table 1): < 500 µM
MIC (S. au; Table 1): < 500 µM
MIC (E.c(tolC)): < 500 µM

O=C(COc1ccccc1)Nc1cccc(-c2c[nH]nc2-c2ccc(F)c(C(F)(F)F)c2)c1 [Example 35]
pIC50 [1, 2]: > 3.30
MIC (B. su; Table 1): > 500 µM
MIC (S. au; Table 1): < 500 µM
MIC (E.c(tolC)): > 500 µM

CS(=O)(=O)Nc1cccc(-c2c[nH]nc2-c2ccc(F)c(C(F)(F)F)c2)c1 [Example 36]
pIC50 [1, 2]: > 3.30
MIC (B. su; Table 1): < 500 µM
MIC (S. au; Table 1): < 500 µM
MIC (E.c(tolC)): < 500 µM
